Experimental data taken from publication PMC8343220, “The selectivity of α‐adrenoceptor agonists for the human α1A, α1B, and α1D‐adrenoceptors” (Pharmacology Research & Perspectives, 2021).
Like-named read-outs stand apart in the source and are kept apart here.

Columns and labels:
[1] = target: T1, human α1D‐adrenoceptor (full length) (Homo sapiens, UniProt P25100); assay: ERK1/2‐phosphorylation (Surefire Alphascreen), CHO‐α1D cells; type: cell-based
T1 construct: human α1D‐adrenoceptor (full length) were used; expressed in transfected cells; host or cells: CHO-K1
T1 sequence (P25100 1-572): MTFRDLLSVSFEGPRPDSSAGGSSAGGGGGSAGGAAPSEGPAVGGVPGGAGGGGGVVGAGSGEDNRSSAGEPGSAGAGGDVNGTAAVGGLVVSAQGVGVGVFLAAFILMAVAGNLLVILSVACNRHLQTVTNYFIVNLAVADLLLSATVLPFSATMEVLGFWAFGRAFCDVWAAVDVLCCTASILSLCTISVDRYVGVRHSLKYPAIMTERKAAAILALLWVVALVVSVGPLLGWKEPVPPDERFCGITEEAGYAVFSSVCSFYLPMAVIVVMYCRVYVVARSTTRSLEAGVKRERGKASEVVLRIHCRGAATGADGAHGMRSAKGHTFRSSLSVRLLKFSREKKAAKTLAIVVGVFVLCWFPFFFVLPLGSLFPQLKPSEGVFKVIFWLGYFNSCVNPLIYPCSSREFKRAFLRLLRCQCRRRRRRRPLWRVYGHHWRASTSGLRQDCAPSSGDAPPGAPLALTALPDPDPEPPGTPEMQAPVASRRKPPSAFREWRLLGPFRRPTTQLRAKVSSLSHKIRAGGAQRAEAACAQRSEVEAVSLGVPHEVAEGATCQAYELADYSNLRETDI

[2] = target: T2, human α1A‐adrenoceptor (Homo sapiens, UniProt P35348); assay: Intracellular free calcium mobilization, CHO‐α1A cells; type: cell-based
T2 construct: expressed in transfected cells; host or cells: CHO-K1
T2 sequence (P35348 1-466): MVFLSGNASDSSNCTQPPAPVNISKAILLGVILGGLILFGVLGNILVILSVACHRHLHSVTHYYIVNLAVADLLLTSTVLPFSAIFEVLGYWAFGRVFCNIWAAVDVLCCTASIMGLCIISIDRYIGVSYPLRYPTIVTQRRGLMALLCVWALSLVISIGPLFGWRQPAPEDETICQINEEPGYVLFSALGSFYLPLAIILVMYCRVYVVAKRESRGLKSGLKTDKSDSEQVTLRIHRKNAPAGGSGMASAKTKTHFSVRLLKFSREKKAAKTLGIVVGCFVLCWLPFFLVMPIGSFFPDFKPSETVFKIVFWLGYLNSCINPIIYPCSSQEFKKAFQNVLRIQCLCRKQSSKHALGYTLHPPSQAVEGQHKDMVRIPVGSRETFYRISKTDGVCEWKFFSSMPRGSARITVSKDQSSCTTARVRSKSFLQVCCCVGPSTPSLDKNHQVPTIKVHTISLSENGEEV

[3] = target: T2, human α1A‐adrenoceptor; assay: ERK1/2‐phosphorylation (Surefire Alphascreen), CHO‐α1A cells; type: cell-based
[4] = test system: parental CHO cell line without any transfected receptors; assay: Intracellular calcium mobilization, parent CHO cells without transfected receptors; type: cell-based, Chinese hamster
[5] = target: T1, human α1D‐adrenoceptor (full length); conditions: CHO‐α1D cells; ligands marked ^a; ref Proudman et al., 2020; cited from earlier work
[6] = target: T3, human α1B‐adrenoceptor (Homo sapiens, UniProt P35368); assay: Intracellular free calcium mobilization, CHO‐α1B cells; type: cell-based
T3 construct: expressed in transfected cells; host or cells: CHO-K1
T3 sequence (P35368 1-520): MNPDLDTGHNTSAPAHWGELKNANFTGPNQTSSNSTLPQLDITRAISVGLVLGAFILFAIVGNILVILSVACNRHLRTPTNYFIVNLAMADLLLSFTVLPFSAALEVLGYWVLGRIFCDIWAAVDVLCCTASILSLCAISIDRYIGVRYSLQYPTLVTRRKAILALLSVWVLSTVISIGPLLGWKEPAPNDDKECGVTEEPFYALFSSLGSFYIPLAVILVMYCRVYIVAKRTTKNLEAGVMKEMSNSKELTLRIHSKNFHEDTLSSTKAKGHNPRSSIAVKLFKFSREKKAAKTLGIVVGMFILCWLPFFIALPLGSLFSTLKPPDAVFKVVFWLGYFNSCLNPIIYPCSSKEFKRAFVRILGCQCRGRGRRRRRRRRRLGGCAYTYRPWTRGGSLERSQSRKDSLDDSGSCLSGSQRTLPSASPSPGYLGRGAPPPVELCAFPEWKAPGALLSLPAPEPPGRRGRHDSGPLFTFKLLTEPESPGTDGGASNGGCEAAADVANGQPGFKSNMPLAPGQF

[7] = target: T1, human α1D‐adrenoceptor (full length); assay: ^3H‐prazosin whole‐cell radioligand binding, CHO‐α1D cells
[8] = target: T3, human α1B‐adrenoceptor; assay: ERK1/2‐phosphorylation (Surefire Alphascreen), CHO‐α1B cells; type: cell-based
[9] = target: T2, human α1A‐adrenoceptor; conditions: CHO‐α1A cells; given as log KD (negative); ligands marked ^a; ref Proudman et al., 2020; cited from earlier work
[10] = target: T3, human α1B‐adrenoceptor; conditions: CHO‐α1B cells; given as log KD (negative); ligands marked ^a; ref Proudman et al., 2020; cited from earlier work
[11] = target: T2, human α1A‐adrenoceptor; assay: ^3H‐prazosin whole‐cell radioligand binding, CHO‐α1A cells
[12] = test system: parental CHO cell line without any transfected receptors; assay: ERK1/2‐phosphorylation, parent CHO cells without transfected receptors; type: cell-based, Chinese hamster
[13] = target: T1, human α1D‐adrenoceptor (full length); assay: Intracellular free calcium mobilization, CHO‐α1D cells; type: cell-based
[14] = target: T2, human α1A‐adrenoceptor; assay: ^3H‐cAMP accumulation, CHO‐α1A cells; type: cell-based; conditions: CHO‐α1A cells; for cAMP accumulation Log EC50: 5 h; for cAMP accumulation % forskolin: % of 10 µM forskolin response
[15] = test system: parental CHO cell line without any transfected receptors; assay: Forskolin‐stimulated cAMP accumulation, parent CHO cells without transfected receptors; type: cell-based, Chinese hamster
[16] = target: T2, human α1A‐adrenoceptor; assay: ^3H‐cAMP accumulation in the presence of 10 μM forskolin, CHO‐α1A cells; type: cell-based; conditions: CHO‐α1A cells; for cAMP accumulation (in presence of forskolin) Log EC50: 10 μM forskolin; for cAMP accumulation (in presence of forskolin) Fold increase: fold increase of the forskolin response
[17] = test system: parental CHO cell line without any transfected receptors; assay: ^3H‐cAMP accumulation, parent CHO cells without transfected receptors; type: cell-based, Chinese hamster
[18] = CHO‐α1D cells, response at 100 µM ligand (no EC50 given)

SMILES	ERK1/2‐phosphorylation % PDBu at 100 µM [1] [%]	Intracellular calcium release % ionomycin [2] [%]	Intracellular calcium release Log EC50 [2]	Log efficacy ratio KD /EC50 [2]	ERK1/2‐phosphorylation % PDBu [3] [%]	ERK1/2‐phosphorylation Log EC50 [3]	Intracellular calcium release % ionomycin [4]	Log KD α1D, ^3H‐prazosin whole cell binding (single site or first, higher affinity component) [5]	3H‐prazosin binding Log KD [7]	Affinity selectivity ratio α1B vs α1D [7] [fold]	Log KD α1A, ^3H‐prazosin whole cell binding [9]	Log KD α1B, ^3H‐prazosin whole cell binding [10]	Affinity selectivity ratio α1A vs α1B [11] [fold]	Affinity selectivity ratio α1A vs α1D [11] [fold]	Intracellular calcium release % Ionomycin at 100 µM [13] [%]	cAMP accumulation Log EC50 [14]	cAMP accumulation % forskolin [14] [%]	cAMP accumulation (in presence of forskolin) Log EC50 [16]	cAMP accumulation (in presence of forskolin) Fold increase [16] [fold]	further results
O=C1CCC(=O)N1C[C@H]1CC[C@H]2CN(c3ncccn3)CCN2C1 [Sunepitrion]	2.4 ± 1.1	30.1 ± 3.0	−6.17 ± 0.14	0.39	39.7 ± 8.4	−5.96 ± 0.12	No response	−5.33 ± 0.23	−5.33	4.8	−5.78 ± 0.06	−4.65 ± 0.06	13.5	2.8	2.5 ± 0.5					Intracellular calcium release % Ionomycin at 100 µM [6]: 8.2 ± 1.3%; ERK1/2‐phosphorylation % PDBu [8]: 7.8 ± 2.8%; ERK1/2-phosphorylation % PDBu at 100μM [12]: 4.1 ± 2.7%
CC1c2ccccc2CN1CC1=NCCN1 (stereo not drawn) [BRL44408]								−5.06 ± 0.05			−5.92 ± 0.09	−4.68 ± 0.07				−6.27 ± 0.17	4.7 ± 0.5	−6.43 ± 0.09	1.62 ± 0.08	ERK1/2‐phosphorylation % PDBu at 100 µM [1, 18]: 47.4 ± 5.7%; cAMP accumulation (in presence of forskolin) % forskolin-stim cAMP at 100μM ([15]; CHO cells without transfected receptors, response at 100μM only, EC50 not obtainable, % of forskolin-stimulated cAMP): 77.6 ± 2.3%; Log efficacy ratio KD /EC50 ([2]; CHO‐α1A cells, binding KD and calcium EC50): 1.32; Intracellular calcium release Log EC50 ([2]; CHO‐α1A cells, given as log EC50 (negative)): −7.24 ± 0.10; Intracellular calcium release % ionomycin ([2]; CHO‐α1A cells, maximal response as % of 10 µM ionomycin): 36.5 ± 5.4%; ERK1/2‐phosphorylation Log EC50 ([3]; CHO‐α1A cells, 2–4 min, ^a bi‐phasic: initial stimulatory part, ^b also active in parent CHO cells): −7.03 ± 0.14; ERK1/2‐phosphorylation % PDBu ([3]; CHO‐α1A cells, % of 10 µM PDBu, ^a bi‐phasic: initial stimulatory part): 77.4 ± 4.1%; Intracellular calcium release % Ionomycin at 100 µM ([6]; CHO‐α1B cells, response at 100 µM ligand (no EC50 given), % of ionomycin response): 13.7 ± 6.5%; 3H‐prazosin binding Log KD ([7]; CHO‐α1D cells, whole‐cell binding (from Table 1), log values given negative): −5.06; Affinity selectivity ratio α1B vs α1D ([7]; higher affinity for α1D than α1B): 2.4 fold; ERK1/2‐phosphorylation % PDBu at 100 µM ([8]; CHO‐α1B cells, response at 100 µM ligand (no EC50 given)): 47.0 ± 7.0%; Affinity selectivity ratio α1A vs α1B ([11]; higher affinity for α1A than α1B): 17.4 fold; ERK1/2-phosphorylation % PDBu at 100μM ([12]; CHO cells without transfected receptors, response at 100μM only, EC50 not obtainable, % of PDBu (10μM)): 17.6 ± 8.1%; Intracellular calcium release % Ionomycin at 100 µM [13, 18]: 4.5 ± 2.1%
CCC1(C2=NCCN2)Cc2ccccc2O1 (stereo not drawn) [Eforaxan]	2.7 ± 1.5	45.0 ± 2.6	−6.83 ± 0.10	1.36	76.4 ± 5.2	−6.12 ± 0.07	No response	−4.97 ± 0.06	−4.97	5.0	−5.47 ± 0.03	−4.27 ± 0.07	15.8	3.2	2.8 ± 0.8	−5.47 ± 0.10	4.0 ± 0.6	−5.93 ± 0.13	1.47 ± 0.13	cAMP accumulation (in presence of forskolin) % forskolin-stim cAMP [15]: No response; cAMP accumulation (in presence of forskolin) Log EC50 [15]: No response; cAMP accumulation % forskolin [17]: No response; Intracellular calcium release % ionomycin [6]: No response; Intracellular calcium release Log EC50 [6]: No response; ERK1/2‐phosphorylation % PDBu at 100 µM [8]: 11.9 ± 2.4%; ERK1/2-phosphorylation % PDBu [12]: No response; ERK1/2-phosphorylation Log EC50 [12]: No response
